Measurements published in PMC10487436, “Towards Anticancer and Antibacterial Agents: Design and Synthesis of 1,2,3-Triazol-quinobenzothiazine Derivatives” (International Journal of Molecular Sciences, 2023).
In brackets after ≈: the same amount, converted by molar mass.

Columns and labels:
[1] = test system: T-47D (human breast cancer); assay: WST-1 proliferation assay, T47D; type: cell-based; conditions: 72 h exposure
Procedure: (§1) Compounds were evaluated for their antiproliferative activity using three cultured cell lines: A549 (human lung carcinoma, ATCC, Manassas, VA, USA), SNB-19 (human glioblastoma, DSMZ, German Collection of Microorganisms and Cell Cultures), T-47D (human breast cancer, ATCC, Manassas, VA, USA), and NHDF (normal human dermal fibroblasts, ATCC, Manassas, VA, USA). The cultured cells were kept at 37 °C and 5% CO2. The cells were seeded (1 × 10^4 cells/well/100 μL DMEM supplemented with 10% FCS, streptomycin, and penicillin) using 96-well plates (corning). Cells were counted in a hemocytometer (Burker chamber) using a phase contrast Olympus IX50 microscope equipped with a Sony SSC-DC58 AP camera and an Olympus DP10 digital camera.
(§2) The antiproliferative effect of the compounds exerted on cancer and normal cells was determined using the Cell Proliferation Reagent WST-1 assay (Roche Molecular Biochemicals, Mannheim, Germany). This assay is based on a colorimetric method using the enzymatic ability of viable cells to cause the bright, red-colored stable tetrazolium monosodium salt [2-(4-iodophenyl)-3-(4-nitrophenyl)-5-(2,4-disulfophenyl)–2H-tetra-zolium] to transform into the dark, red-colored soluble formazan. […] An increase in the amount of formazan dye formed correlated with the number of metabolically active cells in the culture. The formazan dye produced by metabolically active cells was quantified by absorbance readings at appropriate wavelengths. The examined cells were exposed to the tested compounds (1 mM DMSO stock) for 72 h at various concentrations (0.1–100 μM). The control was performed in order to eliminate the DMSO effect at the concentration used. Cell cultures were incubated with WST-1 (10 μL) for 1 h. The absorbance of the samples was measured against a background control at 450 nm using a microplate reader with a reference wavelength at 600 nm. The obtained results are expressed as the means of at least two independent experiments performed in triplicate. The antiproliferative activity of the tested compounds was compared to that of cisplatinum. The values of IC50 (a concentration of a compound that is required for 50% inhibition) were calculated from the dose-response relationship with respect to control. The results were reported as the mean (±std) of three separate experiments.

[2] = test system: A549 (human lung carcinoma); assay: WST-1 proliferation assay, A549; type: cell-based
Procedure: as §1, §2

[3] = test system: NHDF (normal human dermal fibroblasts); assay: WST-1 proliferation assay, NHDF; type: cell-based; conditions: normal cells, 72 h exposure
Procedure: as §1, §2

[4] = test system: SNB-19 (human glioblastoma); assay: WST-1 proliferation assay, SNB-19; type: cell-based
Procedure: as §1, §2

[5] = test system: Mycobacterium smegmatis ATCC 700084; assay: MBC, agar aliquot subculture method, MS; type: cell-based; conditions: Mycolicibacterium smegmatis, ATCC700084
Procedure: (§3) For the above-mentioned strains/isolates, the agar aliquot subculture method was used as a test for bactericidal agents. After the MIC value determination, the inoculum was transferred to CaMH (Oxoid) for staphylococci, BHI (Oxoid) for enterococci, and Middlebrook 7H9 (Difco) for mycobacteria medium using a multipoint inoculator. As indicated above, the plates were incubated on a thermostat at 37 °C for the appropriate time for each micro-organism. The lowest concentration of test compound at which ≤5 colonies were obtained was then evaluated as MBC, corresponding to a 99.9% decrease in CFU relative to the original inoculum.

[6] = test system: methicillin-resistant S. aureus SA 630; assay: MIC, microtitration broth method, MRSA2; type: cell-based; conditions: Staphylococcus aureus; 24 h at 37 °C
Procedure: (§4) In vitro antibacterial activity of the synthesized compounds was evaluated against representatives of multidrug-resistant bacteria, three clinical isolates of methicillin-resistant S. aureus: clinical isolates of animal origin, MRSA 63718 (Department of Infectious Diseases and Microbiology, Faculty of Veterinary Medicine, University of Veterinary Sciences Brno, Czech Republic), carrying the mecA gene; and MRSA SA 630 and MRSA SA 3202 [52] (National Institute of Public Health, Prague, Czech Republic), both of human origin. […] Vancomycin- and methicillin-susceptible S. aureus ATCC 29213 and vancomycin-susceptible Enterococcus faecalis ATCC 29212, obtained from the American Type Culture Collection, were used as the reference and quality control strains. Three vanA gene-carrying vancomycin-resistant isolates of E. faecalis (VRE 342B, VRE 368, VRE 725B) were provided by Oravcova et al..
(§5) The minimum inhibitory concentrations (MICs) were evaluated by the microtitration broth method according to the CLSI, with some modifications. The compounds were dissolved in DMSO (Sigma, St. Louis, MO, USA) to obtain a concentration of […] and diluted in a microtitration plate in an appropriate medium, i.e., Cation Adjusted Mueller–Hinton Broth (CaMH, Oxoid, Basingstoke, UK) for staphylococci, and Brain Heart Infusion Broth (BHI, Oxoid) for enterococci, to reach the final concentration of 256–0.125 µg/mL. Microtiter plates were inoculated with test micro-organisms so that the final concentration of bacterial cells was 10^5. […] A drug-free control and a sterility control were included. The plates were incubated for 24 h at 37 °C for staphylococci and enterococci. […] The experiments were repeated three times.

[7] = test system: Enterococcus faecalis ATCC 29213; assay: MIC, microtitration broth method, EF; type: cell-based; conditions: ATCC29213, 24 h at 37 °C
[8] = test system: methicillin-resistant S. aureus 63718; assay: MIC, microtitration broth method, MRSA3; type: cell-based; conditions: Staphylococcus aureus; 24 h at 37 °C
Procedure: as §4, §5

[9] = test system: vancomycin-resistant E. faecalis VRE 725B; assay: MIC, microtitration broth method, VRE3; type: cell-based; conditions: Enterococcus faecalis, 24 h at 37 °C
Procedure: as §4, §5

[10] = test system: vancomycin-resistant E. faecalis VRE 368; assay: MIC, microtitration broth method, VRE2; type: cell-based; conditions: Enterococcus faecalis, 24 h at 37 °C
Procedure: as §4, §5

[11] = test system: Mycobacterium smegmatis ATCC 700084; assay: MIC, broth dilution micro-method, MS; type: cell-based; conditions: Mycolicibacterium smegmatis, ATCC700084, 72 h; 3 days at 37 °C
[12] = test system: Staphylococcus aureus ATCC 29213; assay: MIC, microtitration broth method, SA; type: cell-based; conditions: ATCC29213, 24 h at 37 °C
Procedure: as §4, §5

[13] = test system: methicillin-resistant S. aureus 63718; assay: MBC, agar aliquot subculture method, MRSA3; type: cell-based; conditions: Staphylococcus aureus
Procedure: as §3

[14] = test system: Mycobacterium marinum CAMP 5644; assay: MIC, broth dilution micro-method, MM; type: cell-based; conditions: CAMP5644, 504 h, 21 days at 28 °C
[15] = test system: methicillin-resistant S. aureus SA 3202; assay: MIC, microtitration broth method, MRSA1; type: cell-based; conditions: Staphylococcus aureus; 24 h at 37 °C
Procedure: as §4, §5

[16] = test system: vancomycin-resistant E. faecalis VRE 342B; assay: MIC, microtitration broth method, VRE1; type: cell-based; conditions: Enterococcus faecalis, 24 h at 37 °C
Procedure: as §4, §5

[17] = test system: Mycobacterium marinum CAMP 5644; assay: MBC, agar aliquot subculture method, MM; type: cell-based; conditions: CAMP5644
Procedure: as §3

[18] = test system: Mycobacterium smegmatis ATCC 700084; conditions: 3 days; for Conc.: lowest multiple of MBC with at least 70% inhibition of respiratory activity / Conc.: lowest multiple of MIC with at least 70% inhibition of respiratory activity: MTT
[19] = Homo sapiens, A549, 72 h exposure
[20] = Homo sapiens, SNB-19, 72 h exposure

SMILES | IC50 ([1]; Homo sapiens, T47D) [µM] | IC50 [2, 19] [µM] | IC50 ([3]; Homo sapiens, NHDF) [µM] | IC50 [4, 20] [µM] | MBC [5] [µM] | MIC [6] [µM] | MIC [7] [µM] | MIC [8] [µM] | MIC [9] [µM] | MIC [10] [µM] | MIC [11] [µM] | MIC [12] [µM] | MIC [14] [µM] | MIC [15] [µM] | MIC [16] [µM] | MBC [17] [µM] | further results
COc1cccc2c1C(=O)c1c(O)c3c(c(O)c1C2=O)C[C@@](O)(C(=O)CO)C[C@@H]3O[C@H]1C[C@H](N)[C@H](O)[C@H](C)O1 [DOX, doxorubicin, reference compound] | 0.8 ± 0.1 | 1.3 ± 0.1 | 5.5 ± 0.5 | 1.7 ± 0.2 |  |  |  |  |  |  |  |  |  |  |  |  | 
C=CCn1cc(COc2ccc3c(c2)Nc2c(c[n+](C)c4ccccc24)S3)nn1 [2b, 5-Methyl-10-(1-allyl-1H-1,2,3-triazol-4-yl)methoxy-12H-quino [3,4-b][1,4]benzothiazinium chloride] | 5.3 ± 0.6 | 1.8 ± 0.2 | > 100 | 2.7 ± 0.4 | 65.5 | > 524 | > 524 | 262 | 524 | > 524 | 65.5 | 524 | 65.5 | > 524 | > 524 | 65.5 | MBC [13]: 262 µM
C[n+]1cc2c(c3ccccc31)Nc1c(OCc3cn(Cc4ccccc4)nn3)cccc1S2 [2f, 5-Methyl-11-(1-benzyl-1H-1,2,3-triazol-4-yl)methoxy-12H-quino [3,4-b][1,4]benzothiazinium chloride] | 20.5 ± 1.4 | 11.5 ± 0.6 | 30.5 ± 2.1 | 8.5 ± 0.5 | 65.5 | > 524 | > 524 | 524 | > 524 | > 524 | 65.5 | > 524 | 65.5 | > 524 | > 524 | 65.5 | 
C[n+]1cc2c(c3ccccc31)Nc1cc(OCc3cn(-c4ccc(Cl)cc4)nn3)ccc1S2 [2n, 5-Methyl-10-(1-(4-chlorophenyl)-1H-1,2,3-triazol-4-yl)methoxy-12H-quino [3,4-b][1,4]benzothiazinium chloride] | 15.4 ± 1.1 | 14.3 ± 0.8 | > 100 | 42.9 ± 1.8 | 16.3 | > 524 | > 524 | 262 | > 524 | > 524 | 16.3 | > 524 | 32.7 | > 524 | > 524 | 32.7 | MBC [13]: 262 µM; Conc.: lowest multiple of MBC with at least 70% inhibition of respiratory activity [18]: 1× MIC (1× MBC); Conc.: lowest multiple of MIC with at least 70% inhibition of respiratory activity [18]: 1× MIC (1× MBC); viability of M. smegmatis at MIC value ([18]; Mycobacterium smegmatis): less than 70%; M. smegmatis Respiration Inhibition ([18]; at the concentration (lowest multiple of MIC with at least 70% inhibition)): 85.9%
Nc1cccc(OCc2cn(Cc3ccc([N+](=O)[O-])cc3)nn2)c1 [5h, 1-(4-nitrobenzyl)-4-(3-aminophenoxy)methyl-1H-1,2,3-triazole] | > 100 | > 100 | > 100 | > 100 |  |  |  |  |  |  |  |  |  |  |  |  | 
C[n+]1cc2c(c3ccccc31)Nc1c(OCc3cn(Cc4ccc([N+](=O)[O-])cc4)nn3)cccc1S2 [2i, 5-Methyl-11-[1-(4-nitrobenzyl)-1H-1,2,3-triazol-4-yl]methoxy-12H-quino [3,4-b][1,4]benzothiazinium chloride] | 2.8 ± 0.2 | 9 ± 0.4 | > 100 | 4.9 ± 0.3 | 65.5 | 524 | > 524 | 524 | 524 | > 524 | 65.5 | 524 | 131 | 524 | > 524 | 131 | 
N.N.[Cl][Pt][Cl] [CIS, cisplatin, reference compound] |  |  |  |  |  |  |  |  |  |  |  |  |  |  |  |  | IC50 [1]: 9 ± 0.7 µM; IC50 ([2]; 72 h exposure): 3 ± 0.2 µM; IC50 [3]: 29.9 ± 3.3 µM; IC50 ([4]; 72 h exposure): 16.7 ± 1.3 µM
CO[C@H]1/C=C/O[C@@]2(C)Oc3c(C)c(O)c4c(O)c(c(/C=N/N5CCN(C)CC5)c(O)c4c3C2=O)NC(=O)/C(C)=C\C=C\[C@H](C)[C@H](O)[C@@H](C)[C@@H](O)[C@@H](C)[C@H](OC(C)=O)[C@@H]1C [RIF, rifampicin, reference compound] |  |  |  |  |  |  |  |  |  |  | 19.4 (≈ 16 µg/mL) |  | 2.43 (≈ 2 µg/mL) |  |  |  | 
O=C(O)c1cn(C2CC2)c2cc(N3CCNCC3)c(F)cc2c1=O [CPX, ciprofloxacin, reference compound] |  |  |  |  | 0.38 (≈ 0.126 µg/mL) |  |  |  |  |  | 0.38 (≈ 0.126 µg/mL) |  | 0.38 (≈ 0.126 µg/mL) |  |  | 0.38 (≈ 0.126 µg/mL) | Conc.: lowest multiple of MBC with at least 70% inhibition of respiratory activity [18]: 32× MIC (32× MBC); Conc.: lowest multiple of MIC with at least 70% inhibition of respiratory activity [18]: 32× MIC (32× MBC)
Nc1ccc(OCc2cn(Cc3ccc([N+](=O)[O-])cc3)nn2)cc1 [5i, 1-(4-nitrobenzyl)-4-(4-aminophenoxy)methyl-1H-1,2,3-triazole] | > 100 | > 100 | > 100 | > 100 |  |  |  |  |  |  |  |  |  |  |  |  | 
C=CCn1cc(COc2ccccc2N)nn1 [5a, 1-allyl-4-(2-aminophenoxy)methyl-1H-1,2,3-triazole] | > 100 | > 100 | > 100 | > 100 |  |  |  |  |  |  |  |  |  |  |  |  | 
Nc1ccc(OCc2cn(Cc3ccccc3)nn2)cc1 [5f, 1-benzyl-4-(4-aminophenoxy)methyl-1H-1,2,3-triazole] | > 100 | > 100 | > 100 | > 100 |  |  |  |  |  |  |  |  |  |  |  |  | 
C=CCn1cc(COc2cccc3c2Nc2c(c[n+](C)c4ccccc24)S3)nn1 [2c, 5-Methyl-11-(1-allyl-1H-1,2,3-triazol-4-yl)methoxy-12H-quino [3,4-b][1,4]benzothiazinium chloride] | 7.6 ± 0.4 | 5.7 ± 0.9 | > 100 | 4.1 ± 0.5 | 65.5 | 524 | > 524 | 524 | 524 | > 524 | 65.5 | 524 | 131 | 524 | > 524 | 131 | 
